Columns and labels:
Assay in all cases: KINOMEscan scanEDGE
Assay type in all cases: binding
Settings in all cases: read-out: Percent Control
PIK3CG = biological target: T1, PIK3CG (Homo sapiens, UniProt P48736)
T1 construct: purchased Eurofins DiscoverX (KINOMEscan scanEDGE service)
Experimental: (§1) Kinome Scan. Compound HTW_A_8 fumarate was screened against 97 kinases at a single concentration of 10 μM at Eurofins DiscoverX using their KINOMEscan™ scanEDGE assay. The results are reported as the % activity relative to DMSO control, where lower values indicate higher affinity. See Table 1 for the full kinome profile.

VEGFR2 = biological target: T2, VEGFR2 (Homo sapiens, UniProt P35968)
T2 construct: purchased Eurofins DiscoverX KINOMEscan scanEDGE
Experimental: as §1

PDGFRB = biological target: T3, PDGFRB (Homo sapiens, UniProt P09619)
T3 construct: purchased Eurofins DiscoverX (KINOMEscan scanEDGE service)
Experimental: as §1

MLK1 = biological target: T4, MLK1 (Homo sapiens, UniProt P80192)
T4 construct: purchased Eurofins DiscoverX (KINOMEscan scanEDGE service)
T4 sequence (P80192 whole entry): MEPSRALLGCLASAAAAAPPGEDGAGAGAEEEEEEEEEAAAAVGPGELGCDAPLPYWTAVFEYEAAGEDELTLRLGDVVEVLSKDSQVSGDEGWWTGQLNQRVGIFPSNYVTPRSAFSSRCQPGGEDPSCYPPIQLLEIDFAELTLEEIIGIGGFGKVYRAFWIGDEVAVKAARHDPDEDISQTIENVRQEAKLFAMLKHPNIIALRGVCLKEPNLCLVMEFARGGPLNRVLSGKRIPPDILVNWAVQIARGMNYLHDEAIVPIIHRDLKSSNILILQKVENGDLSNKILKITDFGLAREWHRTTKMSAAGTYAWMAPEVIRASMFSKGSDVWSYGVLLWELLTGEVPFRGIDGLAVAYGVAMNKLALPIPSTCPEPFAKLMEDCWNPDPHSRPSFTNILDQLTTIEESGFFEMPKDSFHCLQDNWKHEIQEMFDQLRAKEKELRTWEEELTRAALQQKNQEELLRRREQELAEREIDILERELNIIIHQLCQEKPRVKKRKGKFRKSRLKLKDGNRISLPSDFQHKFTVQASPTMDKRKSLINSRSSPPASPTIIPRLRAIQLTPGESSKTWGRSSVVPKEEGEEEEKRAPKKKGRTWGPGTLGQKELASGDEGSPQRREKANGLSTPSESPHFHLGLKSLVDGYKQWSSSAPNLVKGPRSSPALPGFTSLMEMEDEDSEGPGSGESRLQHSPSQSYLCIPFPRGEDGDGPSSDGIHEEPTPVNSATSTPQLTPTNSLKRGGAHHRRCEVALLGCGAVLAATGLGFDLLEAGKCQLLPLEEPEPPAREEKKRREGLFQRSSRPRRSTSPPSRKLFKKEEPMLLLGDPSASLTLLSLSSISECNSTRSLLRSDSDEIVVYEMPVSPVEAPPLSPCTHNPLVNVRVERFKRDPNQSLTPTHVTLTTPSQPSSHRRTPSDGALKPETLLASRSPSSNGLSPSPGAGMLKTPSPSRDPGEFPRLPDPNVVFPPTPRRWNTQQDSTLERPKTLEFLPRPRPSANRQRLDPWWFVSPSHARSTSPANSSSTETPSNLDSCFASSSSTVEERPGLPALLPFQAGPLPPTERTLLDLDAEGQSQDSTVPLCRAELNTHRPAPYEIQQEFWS
Experimental: as §1

ERK1 = biological target: T5, ERK1 (Homo sapiens, UniProt P27361)
T5 construct: purchased Eurofins DiscoverX
Experimental: as §1

IKK-beta = biological target: T6, IKK-beta (Homo sapiens, UniProt O14920)
T6 construct: purchased Eurofins DiscoverX
T6 sequence (O14920 whole entry): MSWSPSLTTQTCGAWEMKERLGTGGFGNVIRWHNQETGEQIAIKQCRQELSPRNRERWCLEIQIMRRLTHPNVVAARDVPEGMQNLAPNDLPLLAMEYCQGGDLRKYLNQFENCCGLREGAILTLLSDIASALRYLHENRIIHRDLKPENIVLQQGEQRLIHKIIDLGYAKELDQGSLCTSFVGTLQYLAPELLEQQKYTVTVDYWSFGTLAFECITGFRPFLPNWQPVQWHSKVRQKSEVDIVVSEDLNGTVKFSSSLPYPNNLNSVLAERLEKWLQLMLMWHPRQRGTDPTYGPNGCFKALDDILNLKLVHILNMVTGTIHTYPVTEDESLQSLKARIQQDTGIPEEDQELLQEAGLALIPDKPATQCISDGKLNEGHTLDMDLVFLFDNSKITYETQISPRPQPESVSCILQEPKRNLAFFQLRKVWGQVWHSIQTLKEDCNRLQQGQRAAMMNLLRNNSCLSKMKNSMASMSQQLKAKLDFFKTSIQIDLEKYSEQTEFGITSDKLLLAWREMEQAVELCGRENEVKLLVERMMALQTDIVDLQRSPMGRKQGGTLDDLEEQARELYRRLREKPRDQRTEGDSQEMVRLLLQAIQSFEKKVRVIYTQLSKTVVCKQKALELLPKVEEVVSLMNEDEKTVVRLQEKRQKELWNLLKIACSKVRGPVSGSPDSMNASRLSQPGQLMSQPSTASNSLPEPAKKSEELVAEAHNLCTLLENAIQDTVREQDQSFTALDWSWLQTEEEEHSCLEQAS
Experimental: as §1

[1] = biological target: T7, JAK3(JH1domain-catalytic) (Homo sapiens, UniProt P52333)
T7 construct: JAK3(JH1domain-catalytic); purchased Eurofins DiscoverX
Experimental: as §1

AURKB = biological target: T8, AURKB (Homo sapiens, UniProt Q96GD4)
T8 construct: purchased Eurofins DiscoverX
Experimental: as §1

BMPR2 = biological target: T9, BMPR2 (Homo sapiens, UniProt Q13873)
T9 construct: purchased Eurofins DiscoverX
Experimental: as §1

CDK9 = biological target: T10, CDK9 (Homo sapiens, UniProt P50750)
T10 construct: purchased Eurofins DiscoverX
Experimental: as §1

[2] = biological target: T11, JAK2(JH1domain-catalytic) (Homo sapiens, UniProt O60674)
T11 construct: JAK2(JH1domain-catalytic); purchased Eurofins DiscoverX
Experimental: as §1

ABL1-nonphosphorylated = biological target: T12, ABL1-nonphosphorylated (Homo sapiens, UniProt P00519)
T12 construct: purchased Eurofins DiscoverX
Experimental: as §1

CDK2 = biological target: T13, CDK2 (Homo sapiens, UniProt P24941)
T13 construct: purchased Eurofins DiscoverX
Experimental: as §1

TRKA = biological target: T14, TRKA (Homo sapiens, UniProt P04629)
T14 construct: purchased Eurofins DiscoverX KINOMEscan scanEDGE
Experimental: as §1

AURKA = biological target: T15, AURKA (Homo sapiens, UniProt O14965)
T15 construct: purchased Eurofins DiscoverX
Experimental: as §1

FGFR2 = biological target: T16, FGFR2 (Homo sapiens, UniProt P21802)
T16 construct: purchased Eurofins DiscoverX
Experimental: as §1

MEK2 = biological target: T17, MEK2 (Homo sapiens, UniProt P36507)
T17 construct: purchased Eurofins DiscoverX (KINOMEscan scanEDGE service)
Experimental: as §1

CDK7 = biological target: T18, CDK7 (Homo sapiens, UniProt P50613)
T18 construct: purchased Eurofins DiscoverX
Experimental: as §1

MKNK1 = biological target: T19, MKNK1 (Homo sapiens, UniProt Q9BUB5)
T19 construct: purchased Eurofins DiscoverX (KINOMEscan scanEDGE service)
Experimental: as §1

ADCK3 = biological target: T20, ADCK3 (Homo sapiens, UniProt Q8NI60)
T20 construct: purchased Eurofins DiscoverX
Experimental: as §1

JNK1 = biological target: T21, JNK1 (Homo sapiens, UniProt P45983)
T21 construct: purchased Eurofins DiscoverX
Experimental: as §1

RIOK2 = biological target: T22, RIOK2 (Homo sapiens, UniProt Q9BVS4)
T22 construct: purchased Eurofins DiscoverX KINOMEscan scanEDGE
T22 sequence (Q9BVS4 whole entry): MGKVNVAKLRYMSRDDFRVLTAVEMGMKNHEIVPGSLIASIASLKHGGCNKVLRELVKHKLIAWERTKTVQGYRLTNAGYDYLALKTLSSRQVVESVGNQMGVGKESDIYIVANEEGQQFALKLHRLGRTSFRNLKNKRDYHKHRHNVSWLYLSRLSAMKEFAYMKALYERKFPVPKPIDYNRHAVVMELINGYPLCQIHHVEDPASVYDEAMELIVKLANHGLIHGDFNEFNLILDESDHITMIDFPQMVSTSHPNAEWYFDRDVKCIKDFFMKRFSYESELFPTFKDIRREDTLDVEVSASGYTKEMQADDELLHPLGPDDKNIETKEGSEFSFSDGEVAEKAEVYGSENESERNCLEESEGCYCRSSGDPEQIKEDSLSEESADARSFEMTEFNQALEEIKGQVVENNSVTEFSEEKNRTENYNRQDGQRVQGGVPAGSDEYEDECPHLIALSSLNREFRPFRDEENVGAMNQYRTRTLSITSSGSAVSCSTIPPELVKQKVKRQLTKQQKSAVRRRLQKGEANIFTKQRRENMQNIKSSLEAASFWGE
Experimental: as §1

TIE2 = biological target: T23, TIE2 (Homo sapiens, UniProt Q02763)
T23 construct: purchased Eurofins DiscoverX KINOMEscan scanEDGE
Experimental: as §1

EGFR = biological target: T24, EGFR (Homo sapiens, UniProt P00533)
T24 construct: purchased Eurofins DiscoverX
Experimental: as §1

MET = biological target: T25, MET (Homo sapiens, UniProt P08581)
T25 construct: purchased Eurofins DiscoverX (KINOMEscan scanEDGE service)
T25 sequence (P08581 25-1390): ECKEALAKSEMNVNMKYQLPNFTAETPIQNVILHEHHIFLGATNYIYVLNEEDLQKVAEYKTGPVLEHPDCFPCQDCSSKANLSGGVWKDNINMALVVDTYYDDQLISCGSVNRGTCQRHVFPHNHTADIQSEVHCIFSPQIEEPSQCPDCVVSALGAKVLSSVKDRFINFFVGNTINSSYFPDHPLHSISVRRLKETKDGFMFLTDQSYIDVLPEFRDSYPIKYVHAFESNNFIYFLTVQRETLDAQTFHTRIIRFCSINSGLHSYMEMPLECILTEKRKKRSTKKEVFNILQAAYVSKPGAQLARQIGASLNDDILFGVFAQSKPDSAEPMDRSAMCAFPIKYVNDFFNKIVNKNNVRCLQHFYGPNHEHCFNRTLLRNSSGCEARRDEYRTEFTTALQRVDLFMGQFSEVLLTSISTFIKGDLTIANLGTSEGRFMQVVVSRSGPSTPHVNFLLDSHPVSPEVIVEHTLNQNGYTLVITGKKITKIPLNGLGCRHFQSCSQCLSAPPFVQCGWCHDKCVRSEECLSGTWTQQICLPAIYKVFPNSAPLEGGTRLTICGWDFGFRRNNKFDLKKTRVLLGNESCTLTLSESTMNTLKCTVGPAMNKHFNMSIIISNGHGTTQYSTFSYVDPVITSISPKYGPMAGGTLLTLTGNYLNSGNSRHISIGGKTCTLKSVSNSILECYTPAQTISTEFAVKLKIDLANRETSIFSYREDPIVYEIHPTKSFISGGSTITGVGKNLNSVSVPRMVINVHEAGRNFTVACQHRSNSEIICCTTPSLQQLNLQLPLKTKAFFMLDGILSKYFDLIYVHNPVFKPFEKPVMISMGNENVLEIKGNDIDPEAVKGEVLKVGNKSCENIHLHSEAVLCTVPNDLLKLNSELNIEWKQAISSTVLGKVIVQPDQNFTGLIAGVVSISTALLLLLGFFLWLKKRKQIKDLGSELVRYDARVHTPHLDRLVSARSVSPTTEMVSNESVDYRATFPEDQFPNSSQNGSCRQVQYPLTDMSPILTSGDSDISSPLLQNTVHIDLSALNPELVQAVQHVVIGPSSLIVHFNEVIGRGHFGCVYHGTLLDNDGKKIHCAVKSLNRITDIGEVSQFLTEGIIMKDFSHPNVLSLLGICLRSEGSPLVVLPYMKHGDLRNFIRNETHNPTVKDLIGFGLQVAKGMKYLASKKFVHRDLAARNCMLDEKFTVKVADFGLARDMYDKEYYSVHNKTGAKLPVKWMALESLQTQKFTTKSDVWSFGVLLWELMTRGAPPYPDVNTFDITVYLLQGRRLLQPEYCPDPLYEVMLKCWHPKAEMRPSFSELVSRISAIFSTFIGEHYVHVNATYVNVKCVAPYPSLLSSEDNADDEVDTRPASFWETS
Experimental: as §1

PDPK1 = biological target: T26, PDPK1 (Homo sapiens, UniProt O15530)
T26 construct: purchased Eurofins DiscoverX (KINOMEscan scanEDGE service)
Experimental: as §1

CDK11 = biological target: T27, CDK11 (Homo sapiens, UniProt Q9BWU1)
T27 construct: purchased Eurofins DiscoverX
Experimental: as §1

ACVR1B = biological target: T28, ACVR1B (Homo sapiens, UniProt P36896)
T28 construct: purchased Eurofins DiscoverX
Experimental: as §1

BTK = biological target: T29, BTK (Homo sapiens, UniProt Q06187)
T29 construct: purchased Eurofins DiscoverX
T29 sequence (Q06187 whole entry): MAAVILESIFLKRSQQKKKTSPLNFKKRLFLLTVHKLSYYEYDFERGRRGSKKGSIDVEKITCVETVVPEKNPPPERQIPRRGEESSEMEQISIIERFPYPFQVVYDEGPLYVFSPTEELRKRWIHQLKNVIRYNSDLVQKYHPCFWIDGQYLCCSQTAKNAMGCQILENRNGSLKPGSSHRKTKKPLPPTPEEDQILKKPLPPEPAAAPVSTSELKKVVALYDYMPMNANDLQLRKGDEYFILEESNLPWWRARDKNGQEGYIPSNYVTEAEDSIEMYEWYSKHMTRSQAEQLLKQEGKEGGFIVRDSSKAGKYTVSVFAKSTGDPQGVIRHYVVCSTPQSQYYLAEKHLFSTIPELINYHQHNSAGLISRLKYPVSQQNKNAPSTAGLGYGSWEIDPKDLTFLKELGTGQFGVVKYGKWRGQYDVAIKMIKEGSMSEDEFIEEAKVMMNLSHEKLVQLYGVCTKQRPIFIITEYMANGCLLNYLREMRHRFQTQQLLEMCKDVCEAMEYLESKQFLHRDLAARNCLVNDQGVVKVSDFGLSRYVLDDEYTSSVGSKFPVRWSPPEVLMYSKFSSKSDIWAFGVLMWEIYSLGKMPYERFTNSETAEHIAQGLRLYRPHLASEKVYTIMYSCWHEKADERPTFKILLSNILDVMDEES
Experimental: as §1

PIM1 = biological target: T30, PIM1 (Homo sapiens, UniProt P11309)
T30 construct: purchased Eurofins DiscoverX (KINOMEscan scanEDGE service)
Experimental: as §1

FLT3 = biological target: T31, FLT3 (Homo sapiens, UniProt P36888)
T31 construct: purchased Eurofins DiscoverX
Experimental: as §1

CDK3 = biological target: T32, CDK3 (Homo sapiens, UniProt Q00526)
T32 construct: purchased Eurofins DiscoverX
Experimental: as §1

PLK3 = biological target: T33, PLK3 (Homo sapiens, UniProt Q9H4B4)
T33 construct: purchased Eurofins DiscoverX KINOMEscan scanEDGE
T33 sequence (Q9H4B4 whole entry): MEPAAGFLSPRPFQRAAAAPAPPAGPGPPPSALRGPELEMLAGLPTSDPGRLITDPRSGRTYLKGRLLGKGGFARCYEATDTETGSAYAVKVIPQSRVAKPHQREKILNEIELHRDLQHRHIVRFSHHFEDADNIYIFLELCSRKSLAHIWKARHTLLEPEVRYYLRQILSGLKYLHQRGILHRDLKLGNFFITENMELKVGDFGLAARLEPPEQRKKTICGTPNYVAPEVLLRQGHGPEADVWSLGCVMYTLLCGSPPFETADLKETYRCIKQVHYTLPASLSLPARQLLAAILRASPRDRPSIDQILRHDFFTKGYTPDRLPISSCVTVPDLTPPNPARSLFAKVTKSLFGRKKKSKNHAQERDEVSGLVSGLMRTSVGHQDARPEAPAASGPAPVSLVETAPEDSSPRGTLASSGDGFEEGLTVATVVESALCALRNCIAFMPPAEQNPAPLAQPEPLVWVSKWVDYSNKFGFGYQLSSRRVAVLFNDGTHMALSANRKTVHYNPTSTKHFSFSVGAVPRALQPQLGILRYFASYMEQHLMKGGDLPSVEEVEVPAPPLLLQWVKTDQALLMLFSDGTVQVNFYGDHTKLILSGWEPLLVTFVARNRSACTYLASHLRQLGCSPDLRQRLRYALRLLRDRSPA
Experimental: as §1

TGFBR1 = biological target: T34, TGFBR1 (Homo sapiens, UniProt P36897)
T34 construct: purchased Eurofins DiscoverX KINOMEscan scanEDGE
Experimental: as §1

p38-beta = biological target: T35, p38-beta (Homo sapiens, UniProt Q15759)
T35 construct: purchased Eurofins DiscoverX (KINOMEscan scanEDGE service)
Experimental: as §1

PLK4 = biological target: T36, PLK4 (Homo sapiens, UniProt O00444)
T36 construct: purchased Eurofins DiscoverX KINOMEscan scanEDGE
Experimental: as §1

ERBB4 = biological target: T37, ERBB4 (Homo sapiens, UniProt Q15303)
T37 construct: purchased Eurofins DiscoverX
Experimental: as §1

ULK2 = biological target: T38, ULK2 (Homo sapiens, UniProt Q8IYT8)
T38 construct: purchased Eurofins DiscoverX KINOMEscan scanEDGE
Experimental: as §1

GSK3B = biological target: T39, GSK3B (Homo sapiens, UniProt P49841)
T39 construct: purchased Eurofins DiscoverX
Experimental: as §1

**Q.** `COc1ccc2c3ccnc(C)c3n(CCN(C)C)c2c1.O=C(O)/C=C/C(=O)O` [HTW_A_8 fumarate, 2-(7-methoxy-1-methyl-9H-pyrido[3,4-b]indol-9-yl)-N,N-dimethylethan-1-amine Fumarate Salt (2:3)] was tested. Which remaining binding at 10 µM (PIK3CG) did it give?
**A.** Its remaining binding at 10 µM is 33%.

**Q.** What about the remaining binding at 10 µM (VEGFR2) of the same molecule?
**A.** The remaining binding at 10 µM was 100%.

**Q.** What about the remaining binding at 10 µM (PDGFRB) of the same molecule?
**A.** The remaining binding at 10 µM was 100%.

**Q.** And the remaining binding at 10 µM (MLK1)?
**A.** The remaining binding at 10 µM was 91%.

**Q.** And the remaining binding at 10 µM (ERK1)?
**A.** The remaining binding at 10 µM was 85%.

**Q.** And the remaining binding at 10 µM (IKK-beta)?
**A.** The remaining binding at 10 µM was 100%.

**Q.** What about the remaining binding at 10 µM [1] of the same molecule?
**A.** Its remaining binding at 10 µM is 100%.

**Q.** What about the remaining binding at 10 µM (AURKB) of the same molecule?
**A.** Its remaining binding at 10 µM is 100%.

**Q.** What about the remaining binding at 10 µM (BMPR2) of the same molecule?
**A.** The remaining binding at 10 µM was 100%.

**Q.** And the remaining binding at 10 µM (CDK9)?
**A.** Its remaining binding at 10 µM is 100%.

**Q.** And the remaining binding at 10 µM [2]?
**A.** Its remaining binding at 10 µM is 100%.

**Q.** And the remaining binding at 10 µM (ABL1-nonphosphorylated)?
**A.** Its remaining binding at 10 µM is 79%.

**Q.** And the remaining binding at 10 µM (CDK2)?
**A.** Its remaining binding at 10 µM is 100%.

**Q.** And the remaining binding at 10 µM (TRKA)?
**A.** Its remaining binding at 10 µM is 93%.

**Q.** And the remaining binding at 10 µM (AURKA)?
**A.** Its remaining binding at 10 µM is 100%.

**Q.** What about the remaining binding at 10 µM (FGFR2) of the same molecule?
**A.** The remaining binding at 10 µM was 95%.

**Q.** And the remaining binding at 10 µM (MEK2)?
**A.** Its remaining binding at 10 µM is 82%.

**Q.** What about the remaining binding at 10 µM (CDK7) of the same molecule?
**A.** The remaining binding at 10 µM was 15%.

**Q.** What about the remaining binding at 10 µM (MKNK1) of the same molecule?
**A.** Its remaining binding at 10 µM is 93%.

**Q.** What about the remaining binding at 10 µM (ADCK3) of the same molecule?
**A.** Its remaining binding at 10 µM is 100%.

**Q.** What about the remaining binding at 10 µM (JNK1) of the same molecule?
**A.** Its remaining binding at 10 µM is 100%.

**Q.** What about the remaining binding at 10 µM (RIOK2) of the same molecule?
**A.** Its remaining binding at 10 µM is 83%.

**Q.** And the remaining binding at 10 µM (TIE2)?
**A.** Its remaining binding at 10 µM is 99%.

**Q.** What about the remaining binding at 10 µM (EGFR) of the same molecule?
**A.** Its remaining binding at 10 µM is 84%.

**Q.** And the remaining binding at 10 µM (MET)?
**A.** The remaining binding at 10 µM was 100%.

**Q.** And the remaining binding at 10 µM (PDPK1)?
**A.** Its remaining binding at 10 µM is 76%.

**Q.** What about the remaining binding at 10 µM (CDK11) of the same molecule?
**A.** The remaining binding at 10 µM was 95%.

**Q.** What about the remaining binding at 10 µM (ACVR1B) of the same molecule?
**A.** The remaining binding at 10 µM was 83%.

**Q.** What about the remaining binding at 10 µM (BTK) of the same molecule?
**A.** Its remaining binding at 10 µM is 100%.

**Q.** And the remaining binding at 10 µM (PIM1)?
**A.** Its remaining binding at 10 µM is 94%.

**Q.** What about the remaining binding at 10 µM (FLT3) of the same molecule?
**A.** The remaining binding at 10 µM was 85%.

**Q.** What about the remaining binding at 10 µM (CDK3) of the same molecule?
**A.** Its remaining binding at 10 µM is 91%.

**Q.** And the remaining binding at 10 µM (PLK3)?
**A.** The remaining binding at 10 µM was 96%.

**Q.** And the remaining binding at 10 µM (TGFBR1)?
**A.** Its remaining binding at 10 µM is 90%.

**Q.** What about the remaining binding at 10 µM (p38-beta) of the same molecule?
**A.** The remaining binding at 10 µM was 98%.

**Q.** And the remaining binding at 10 µM (PLK4)?
**A.** The remaining binding at 10 µM was 81%.

**Q.** What about the remaining binding at 10 µM (ERBB4) of the same molecule?
**A.** Its remaining binding at 10 µM is 100%.

**Q.** What about the remaining binding at 10 µM (ULK2) of the same molecule?
**A.** Its remaining binding at 10 µM is 100%.

**Q.** And the remaining binding at 10 µM (GSK3B)?
**A.** The remaining binding at 10 µM was 100%.

Reference: US20260284018A1, “DUAL INHIBITORS OF DYRK1A AND 5-HT2 FOR TREATING A BRAIN DISORDER” (THE REGENTS OF THE UNIVERSITY OF CALIFORNIA, priority 2023, published 2026)
